Key:
[1] = target: Histone-lysine N-methyltransferase EZH2 (Homo sapiens, UniProt Q15910); experiment: Inhibition of EZH2 (unknown origin) by radiometric assay
[2] = target: Bromodomain-containing protein 4 (Homo sapiens, UniProt O60885); experiment: Inhibition of BRD4 (unknown origin) by HTRF analysis

Histone-lysine N-methyltransferase EZH2, sequence (Q15910 whole entry): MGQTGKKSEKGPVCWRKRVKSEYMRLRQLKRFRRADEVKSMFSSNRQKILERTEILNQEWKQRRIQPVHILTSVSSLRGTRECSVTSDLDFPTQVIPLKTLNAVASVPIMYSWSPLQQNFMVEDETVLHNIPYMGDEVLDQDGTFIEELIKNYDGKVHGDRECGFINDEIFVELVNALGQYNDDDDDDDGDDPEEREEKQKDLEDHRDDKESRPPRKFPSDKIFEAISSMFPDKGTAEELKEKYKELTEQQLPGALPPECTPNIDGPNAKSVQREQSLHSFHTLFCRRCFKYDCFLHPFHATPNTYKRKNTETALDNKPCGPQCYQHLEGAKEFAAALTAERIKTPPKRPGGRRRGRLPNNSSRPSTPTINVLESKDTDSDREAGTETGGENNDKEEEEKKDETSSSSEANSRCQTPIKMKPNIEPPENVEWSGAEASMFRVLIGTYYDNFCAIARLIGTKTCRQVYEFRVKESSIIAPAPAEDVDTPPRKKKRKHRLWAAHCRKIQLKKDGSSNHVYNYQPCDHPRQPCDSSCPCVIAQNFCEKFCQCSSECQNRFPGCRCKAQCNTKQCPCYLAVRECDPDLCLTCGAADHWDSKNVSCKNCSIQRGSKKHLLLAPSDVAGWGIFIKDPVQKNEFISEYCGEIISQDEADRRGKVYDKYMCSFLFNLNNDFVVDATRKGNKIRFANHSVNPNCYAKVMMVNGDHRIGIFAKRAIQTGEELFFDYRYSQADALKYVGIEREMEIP

SMILES | IC50 [1] | IC50 [2]
Cc1cc(C)c(CNC(=O)c2cc(-c3cn(C)c(=O)c4[nH]ccc34)cc3c2c(C)cn3CC2CCCCC2)c(=O)[nH]1 | 12 nM | > 300 nM
Cc1cc(C)c(CNC(=O)c2cc(-c3cn(C)c(=O)c4[nH]ccc34)cc3[nH]cc(C)c23)c(=O)[nH]1 | > 100 nM | > 300 nM
Cc1cc(C)c(CNC(=O)c2cc(-c3cn(C)c(=O)c4[nH]ccc34)cc3c2ccn3CC2CCCCC2)c(=O)[nH]1 | 63 nM | 187 nM
CCC(CC)n1ccc2c(C(=O)NCc3c(C)cc(C)[nH]c3=O)cc(-c3cn(C)c(=O)c4[nH]ccc34)cc21 | 3 nM | 154 nM
Cc1[nH]c(=O)c(CNC(=O)c2cc(-c3cn(C)c(=O)c4[nH]ccc34)cc3c2cnn3C2CCCC2)c2c1CCCC2 | 46 nM | > 300 nM
CCC(C)n1cc(C)c2c(C(=O)NCc3c(C)cc(C)[nH]c3=O)cc(-c3cn(C)c(=O)c4[nH]ccc34)cc21 (configuration not stated) | 1.1 nM | > 300 nM

Next, values leading:

IC50 [1] | IC50 [2] | SMILES
100 nM | > 300 nM | Cc1[nH]c(=O)c(CNC(=O)c2cc(-c3cn(C)c(=O)c4[nH]ccc34)cc3[nH]ccc23)c2c1CCCC2
12.3 nM | > 300 nM | Cc1[nH]c(=O)c(CNC(=O)c2cc(-c3cn(C)c(=O)c4[nH]ccc34)cc3c2ccn3C(C)C)c2c1CCCC2
7.9 nM | > 300 nM | CCC(C)n1cc(C)c2c(C(=O)NCc3c4c(c(C)[nH]c3=O)CCCC4)cc(-c3cn(C)c(=O)c4[nH]ccc34)cc21 (configuration not stated)
80 nM | > 300 nM | Cc1[nH]c(=O)c(CNC(=O)c2cc(-c3cn(C)c(=O)c4[nH]ccc34)cc3c2ccn3CC2CCCCC2)c2c1CCCC2
8.3 nM | > 300 nM | Cc1[nH]c(=O)c(CNC(=O)c2cc(-c3cn(C)c(=O)c4[nH]ccc34)cc3c2ccn3C2CCCC2)c2c1CCCC2

— ChEMBL document CHEMBL5316343, “Design, Synthesis, and Biological Evaluation of a Potent Dual EZH2-BRD4 Inhibitor for the Treatment of Some Solid Tumors” (J Med Chem, 2023)
